We go through 8 compounds from patent publication US7993855B2, “Use of additives to lower the rate of a binding reaction” (Aokin AG, priority 2006, dated 2011).

Where a name gives a salt, the structure may show the parent alone.

In experiment [1] the test system is anti-thyroxine. The experiment can be described thus: Fluorescence polarization kinetic assay, F-thyroxine/anti-thyroxine system. The note with it: PBS with 4.75% 2-propanol, BSA 0.1 μM, Anti-Thyroxine 1:300. Format: binding. A general note: In fluorescence polarisation assays a small probe gives low polarisation when free and higher when bound to something large.

For experiment [2], the system named is anti-thyroxine. Described as above. The class given is binding. The conditions noted are these: for Rate of the antibody reaction with increasing concentrations of additive: PBS with 5% 2-propanol, BSA 0.1 μM, Fluorescein-Thyroxine 1 nM, Anti-Thyroxine 1:300. The protocol:
An initial stock solution of anti-thyroxine sera was prepared. In particular, 1 ml of polyclonal anti-thyroxine sera containing 10 mg/ml IgG (Sigma) was diluted 1:5 in PBS buffer, pH 7.5. The final concentration of IgG in the stock solution was about 2 mg/ml.
An initial stock solution of fluorescein-labeled analyte (F-thyroxine) was prepared. […] First, 5 mg (4×10^−6 moles) of F-thyroxine was diluted to 10 ml in PBS to get a 4.1×10^−4 M solution of F-thyroxine. This solution was then further diluted 100-fold in PBS. The final concentration of F-thyroxine in the stock solution was about 4.1×10^−6 M.
All steps are performed at ambient temperature. The total final reaction volume after all additions is 3030 μl. • 1. Add 20 μl or 0 μl (control) anti-sera stock solution to about 2980 μl of Buffer 1. • 2. Pipette the diluted anti-sera solution prepared in step 1 up and down from 1 to 10 seconds to thoroughly mix. • 3. Add between 0 and 20 μl thyroxine stock solution (e.g., 0, 0.5, 2.0, 5.0 and 20 μl) to the mixed anti-sera from step 2. • 4. Pipette the mixture formed in step 3 up and down for 1 to 10 seconds and then incubate for 30 to 300 seconds. • 5. Add 10 μl of the Fluorescein-labeled thyroxine stock solution to the incubated mixture from step 4. • 6. Pipette the mixture formed in step 5 up and down for 1 to 10 seconds and begin measuring polarization (P), Polarized Fluorescence Intensity Difference (V−H) or quenching (V+H total intensity) versus time for between 10 and 7200 seconds after end of mixing in a direct readout polarometer or between 0.1 and 7200 seconds after end of mixing with a stopped-flow polarometer. • 7. Determine the rate of reaction (initial rates) and plot versus amount of thyroxine stock solution added in step 3 to produce a standard curve. • 8. Against a standard curve, an unknown amount of thyroxine can be measured by comparison of initial rate measurement (speed of reaction) of unknown with the standard curve. […]

A further experiment concerns serum components. As to the kind of experiment: Initial non-specific binding between F-thyroxine and serum components (P at t=0). The conditions noted are these: experiments 6-3 through 6-7: serum, increasing sodium benzoate; PBS with 10% 2-propanol. The protocol: The buffer and stock solutions described in Example 1 and the measurement methodology described in Example 2 were used.
• Fluorescein-Thyroxine (1 nM) • Anti-Thyroxine (1:300 dilution) • PBS with 10% 2-propanol • Benzoate in different concentrations • At t=0 s antibody was pipetted into the cuvette. • A 3 ml cuvette was used, the total volume in the cuvette was 2 ml. A small magnetic stirrer was used for mixing
In example 6, the reactions between F-Thyroxine and Anti-Thyroxine, which were carried out in the presence of serum under different reaction conditions, are compared (FIG. 4). There are seven different amounts of sodium benzoate, between 0 and 1.0 Molar in the cuvette. The reaction was performed in a phosphate buffered saline buffer containing 10% 2-propanol. The table in FIG. 4 lists the two important parameters.

In experiment [3] the test system is anti-thyroxine. The experiment can be described thus: Fluorescence polarization kinetic assay, rhodamine-labeled thyroxine (ROX-T4)/anti-thyroxine system. Format: binding. The conditions noted are these: Rox-Thyroxine 1.5 nM, Anti-Thyroxine 1:300, PBS with 10% 2-propanol, serum 1:500. The protocol:
The protocol used is described below. […] Use clean glassware, washed with isopropanol. • 2. Make a 0.5 M solution of sodium benzoate. • 3. […] This will be named BUFFER. • 4. […] The absorbance spectrum is measured using a UV-VIS spectrophotometer, 400 nm to 800 nm. This spectrum is used to define the absorbance of the background as zero and to control that it is actually zero. • 6. […] Measure the absorbance UV-VIS, 400 nm to 800 nm. […] Using a rotating polarometer with a 75 watt Xenon short-arc lamp. The rotating polarizer has three channels: Polarization (P), Total Intensity (V+H), and V−H. • 8. […] Measure P, V+H and V−H after short mixing and 30 second equilibration. […] Add 10 μl. Antibody solution (anti-thyroxine in PBS, dilution unknown, probably 5 mg in 1000 μl PBS and further diluted 1:10 in PBS). New volume is 3017 μl. Measure P, V+H and V−H after short mixing.

The subject of another experiment is human sera. The experiment can be described thus: Non-specific binding of F-thyroxine in presence of human sera. The conditions noted are these: Buffer 2 (1.0 M sodium benzoate), 50 μl human sera, V−H over 10-600 s. The protocol: With reference to FIG. 2, experiments were performed to determine the effects of an additive on specific and non-specific binding. The additive used in the present example was sodium benzoate. The materials described in Example 1 and the measurement methodology described in Example 2 were used. In particular, 50 μl of human sera was added to 3000 μl of Buffer 2 or PBS at pH 7.5 (no additive control) and thoroughly mixed by pipetting for 1 to 10 seconds. To this was added 0 μl of unlabeled thyroxine and 0 μl, 20 μl or 50 μl of anti-sera stock solution. The mixture was thoroughly mixed by pipetting for 1 to 10 seconds. Then, 5 μl of the fluorescein-labeled thyroxine stock solution was added. This was followed by mixing for 1 to 10 seconds by pipetting. Then, d(V−H)/dt measurements were made versus time for between 10 and 600 seconds. This protocol was followed for Experiments 6-9 in Table 2.

Turning to `O=C1CCC(=O)N1O` [N-hydroxysuccinimide], in the experiment on anti-thyroxine [1] (Fluorescein-Thyroxine 1.5 nM), the “Rate of the antibody reaction with increasing concentrations of additive” value is listed as “substantially slowed”. On to `N=C(N)N` [guanidine hydrochloride], for which the “Rate of the antibody reaction with increasing concentrations of additive” value with anti-thyroxine [2] was “substantially slowed”.

`O=C([O-])c1ccccc1.[K+]` [potassium benzoate]: the “Rate of the antibody reaction with increasing concentrations of additive” value with anti-thyroxine [1] (Fluorescein-Thyroxine 1 nM) was “substantially slowed”. For `O=C([O-])c1ccccc1.[Na+]` [sodium benzoate], the “Polarization value before addition of antibody (t=0)” value in the experiment on serum components stood at 100 mP. For the same compound, the “Reaction between F-thyroxine and its specific antibody capable of being followed (kinetic curve)” value in the experiment with anti-thyroxine [2] (Buffer 1 (0.5 M sodium benzoate in PBS, pH 7.5) versus PBS) is given as “only capable of being followed when the reaction was performed in the presence of an additive”. In addition, the “Effect of additive on specific binding” value in the experiment with anti-thyroxine [2] (Buffer 2 (1.0 M sodium benzoate), 50 μl human sera, 0/20/50 μl antiserum, V−H over 10-600 s) is “does not inhibit specific binding”. Also, the “Rate of the antibody reaction with increasing concentrations of additive” value in the experiment with anti-thyroxine [2] is recorded as “substantially slowed”. In the experiment with anti-thyroxine [2] (experiments 6-3 through 6-7: serum, increasing sodium benzoate, PBS with 10% 2-propanol), the “Reaction rate relative to its value from zero additive agent” value is on record as “about 30%”. Also, in the experiment with anti-thyroxine [3], the “Rate of the reaction with increasing concentrations of additive” value is reported as “substantially slowed”. For the same compound, the “Effect of additive on non-specific binding” value in the experiment with human sera is reported as “inhibits non-specific binding”. In the case of `[Cl-].[Na+]` [sodium chloride], the “Rate of the antibody reaction with increasing concentrations of additive” value in the experiment on anti-thyroxine [1] (Fluorescein-Thyroxine 1.5 nM) is “not substantially slowed”. On to `O=C([O-])CCl.[Na+]` [sodium chloroacetate], for which, in the experiment on anti-thyroxine [1] (Fluorescein-Thyroxine 1 nM), the “Rate of the antibody reaction with increasing concentrations of additive” value is given as “substantially slowed”. Still for that read-out and setting: the result for `O=C([O-])C(Cl)Cl.[Na+]` [sodium dichloroacetate] reads “substantially slowed”. Consider `Cc1ccc(S(=O)(=O)O)cc1.[Na]` [sodium p-tolulene sulfonate, sodium p-toluene sulfonate], for which the “Rate of the antibody reaction with increasing concentrations of additive” value in the experiment on anti-thyroxine [2] was “substantially slowed”.
